In one assay the test system is IL-23p19. Description: LPS induced IL23p19 in THP-1 cells (with IFNγ primed) assay. The class given is cell-based, Human. The following applies: THP-1 cells, IFNγ primed, LPS 1 ug/mL, 18 hours, 10 pt, read-out: IL23-p19 ELISA, THP1-IFNy, LPS, 10 pt EC50. An outline of the steps: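 Readout is secreted IL-23p19, quantified by chemiluminescent sandwich ELISA after 18 h LPS (1 ug/mL) stimulation of THP-1 cells that had been IFNγ-primed (50 ng/mL, ~18 h) and given compound 1 h beforehand at 37 °C. EC50 derived by curve fit; cytotoxicity tracked with Cell Titer Glo.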
Background: An ELISA detects its analyte on a solid surface through an enzyme-linked reagent.

Another assay relates to IL-23 (p19/p40). Description: IL23-p19 ELISA, Dendritic, LPS (compound screening using DC cells). Type of assay: cell-based, Human. The following applies: PBMC-derived DC cells, IFNγ primed, LPS 1 μg/ml, 18 hours, 10 pt, read-out: IL23-p19 ELISA, Dendritic, LPS, 10 pt, EC50. In a few lines: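 IL-23 in supernatants quantified by sandwich ELISA (anti-p19 capture, biotinylated anti-p40 detection, chemiluminescent readout) after 18 h LPS (1 μg/ml) stimulation. Cells were monocyte-derived DCs (GM-CSF/IL-4, 7 d), IFNγ-primed 24 h and given compound 1 h before LPS; viability by CellTiter Glo.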

Structures can show the parent of a compound that is named as a salt. Where two headings read alike, the source gives them in different places.

EC50 data for 20 molecules are collected here from patent US10208074B2, “Pyrazole compounds and method for making and using the compounds” (Rigel Pharmaceuticals, Inc., priority 2015, dated 2019).

As a reminder, the EC50 is the concentration that produces a half-maximal response.

On to `COCCOCCN(C(=O)c1ccc(-c2cnn(CCOCCOC)c2)o1)c1cn(CCOCCOC)nc1-c1ccccn1` [Compound I-50, N-(2-(2-methoxyethoxy)ethyl)-5-(1-(2-(2-methoxyethoxy)ethyl)-1H-pyrazol-4-yl)-N-(1-(2-(2-methoxyethoxy)ethyl)-3-(pyridin-2-yl)-1H-pyrazol-4-yl)furan-2-carboxamide formate], for which the EC50 in the assay on IL-23p19 (Homo sapiens, THP-1, 18 h) was determined as 14200 nM; in the assay with IL-23 (p19/p40) (Homo sapiens, 18 h), 3510 nM.

As for `COc1ccc(Cn2cc(-c3nc(C(=O)Nc4cn(C5CC(OC)C5)nc4-c4ccccn4)cs3)cn2)cc1` (stereo not shown) [II-51, 2-(1-(4-methoxybenzyl)-1H-pyrazol-4-yl)-N-(1-(3-methoxycyclobutyl)-3-(pyridin-2-yl)-1H-pyrazol-4-yl)thiazole-4-carboxamide], the EC50 in the assay with IL-23p19 (Homo sapiens, THP-1, 18 h) was 3610 nM; in the assay with IL-23 (p19/p40) (Homo sapiens, 18 h), 26600 nM.

Turning to `CC(C)(C)NC(=O)N1CC(n2cc(NC(=O)c3ccc(-c4cn[nH]c4)o3)c(-c3ccccn3)n2)C1` [Compound I-84, 3-[4-{5-(1H-Pyrazol-4-yl)furan-2-carboxamido}-3-(pyridine-2-yl)-1H-pyrazol-1-yl]-N-(tert-butyl)azetidine-1-carboxamide, free base], the EC50 in the assay on IL-23p19 (Homo sapiens, THP-1, 18 h) stood at 42.3 nM; in the assay on IL-23 (p19/p40) (Homo sapiens, 18 h) it was 97.7 nM.

As to `O=C(Nc1cn(C2C=C(F)C2)nc1-c1ccccn1)c1csc(-c2cn[nH]c2)n1` (stereo not shown) [II-132, N-(1-(3-fluorocyclobut-2-en-1-yl)-3-(pyridin-2-yl)-1H-pyrazol-4-yl)-2-(1H-pyrazol-4-yl)thiazole-4-carboxamide], the 50% effective concentration (EC50) in the assay on IL-23p19 (Homo sapiens, THP-1, 18 h) turned out to be 224 nM; in the assay with IL-23 (p19/p40) (Homo sapiens, 18 h), 924 nM.

For the molecule `CCO[C@@H]1CC[C@H](n2cc(NC(=O)c3ccc(-c4cn[nH]c4)o3)c(-c3ccccn3)n2)C1` [Compound I-132, N-(1-((1S,3R)-3-ethoxycyclopentyl)-3-(pyridin-2-yl)-1H-pyrazol-4-yl)-5-(1H-pyrazol-4-yl)furan-2-carboxamide formate], the EC50 with IL-23p19 (Homo sapiens, THP-1, 18 h) amounted to 81.2 nM; with IL-23 (p19/p40) (formate), 103 nM.

`CCO[C@@H]1C[C@H](n2cc(NC(=O)c3ccc(-c4cn[nH]c4)o3)c(-c3ccccn3)n2)C1F` (stereo partly drawn) [Compound I-140, N-(1-((1S,3R)-3-ethoxy-2-fluorocyclobutyl)-3-(pyridin-2-yl)-1H-pyrazol-4-yl)-5-(1H-pyrazol-4-yl)furan-2-carboxamide formate]: the EC50 with IL-23p19 (Homo sapiens, THP-1, 18 h) was determined as 799 nM; in the assay with IL-23 (p19/p40) (Homo sapiens, 18 h), 224 nM.

With `CC(C)(C)C(=O)N1CC(n2cc(NC(=O)c3ccc(-c4cn[nH]c4)o3)c(-c3ccccn3)n2)C1` [Compound I-91, N-[1-{1-Pivaloylazetidin-3-yl}-3-(pyridine-2-yl)-1H-pyrazol-4-yl]-5-(1H-pyrazol-4-yl)furan-2-carboxamide, formate salt], the EC50 with IL-23p19 (Homo sapiens, THP-1, 18 h) worked out at 12.2 nM; in the assay with IL-23 (p19/p40) (Homo sapiens, 18 h), 10.6 nM.

On to `CCCC(=O)N1CC(n2cc(NC(=O)c3ccc(-c4cn[nH]c4)o3)c(-c3ccccn3)n2)C1` [Compound I-99, N-[1-{1-Butyrylazetidin-3-yl}-3-(pyridine-2-yl)-1H-pyrazol-4-yl]-5-(1H-pyrazol-4-yl)furan-2-carboxamide, formate salt], for which the EC50 was 18 nM in the assay with IL-23p19 (Homo sapiens, THP-1, 18 h) and 15.6 nM in the assay on IL-23 (p19/p40) (Homo sapiens, 18 h).

Regarding `O=C(Nc1cn(C2CCC2)nc1-c1ccccn1)c1coc(-c2cn[nH]c2)n1` [III-5, N-(1-cyclobutyl-3-(pyridin-2-yl)-1H-pyrazol-4-yl)-2-(1H-pyrazol-4-yl)oxazole-4-carboxamide], the EC50 in the assay on IL-23p19 (Homo sapiens, THP-1, 18 h) is 270 nM; in the assay on IL-23 (p19/p40) (Homo sapiens, 18 h) it was 71 nM.

Consider `CCO[C@H]1C[C@@H](n2cc(NC(=O)c3csc(-c4cn[nH]c4)n3)c(-c3ccc(C(F)(F)F)cn3)n2)C1` [II-86, N-(1-((1,3-cis)-3-ethoxycyclobutyl)-3-(5-(trifluoromethyl)pyridin-2-yl)-1H-pyrazol-4-yl)-2-(1H-pyrazol-4-yl)thiazole-4-carboxamide], for which the EC50 with IL-23p19 (Homo sapiens, THP-1, 18 h) turned out to be 137 nM; with IL-23 (p19/p40) (Homo sapiens, 18 h), 5780 nM.

For the molecule `O=C(Nc1cn(C2CC(OCc3ccccc3)C2)nc1-c1ccccn1)c1ccc(-c2cn[nH]c2)o1` (stereo not drawn) [Compound I-73, N-{1-(3-Benzyloxy)cyclobutyl)-3-(pyridine-2-yl)-1H-pyrazol-4-yl}-5-(1H-pyrazol-4-yl)furan-2-carboxamide, Trans isomer], the concentration giving a half-maximal response (EC50) with IL-23p19 (Homo sapiens, THP-1, 18 h) worked out at 697 nM; in the assay on IL-23 (p19/p40) (Homo sapiens, 18 h) it was 410 nM.

With `O=C(Nc1cn(CC(F)(F)F)nc1-c1ccccn1)c1csc(-c2cn[nH]c2)n1` [II-94, 2-(1H-pyrazol-4-yl)-N-(3-(pyridin-2-yl)-1-(2,2,2-trifluoroethyl)-1H-pyrazol-4-yl)thiazole-4-carboxamide], the EC50 in the assay with IL-23p19 (Homo sapiens, THP-1, 18 h) was found to be 311 nM; in the assay on IL-23 (p19/p40) (Homo sapiens, 18 h) it was 33.3 nM.

In the case of `O=C(Nc1cn([C@H]2C[C@@H](OCC(F)(F)F)C2)nc1-c1ccccn1)c1ccc(-c2cn[nH]c2)o1` [Compound I-146, 5-(1H-pyrazol-4-yl)-N-(3-(pyridin-2-yl)-1-((1s,3s)-3-(2,2,2-trifluoroethoxy)cyclobutyl)-1H-pyrazol-4-yl)furan-2-carboxamide formate], the half-maximal effective concentration (EC50) in the assay with IL-23p19 (Homo sapiens, THP-1, 18 h) was determined as 149 nM; with IL-23 (p19/p40) (Homo sapiens, 18 h), 370 nM.

As to `CCO[C@@H]1CC[C@H](n2cc(NC(=O)c3ccc(-c4cn[nH]c4)o3)c(-c3ccccn3)n2)C1` [Compound I-133, N-(1-((1S,3R)-3-ethoxycyclopentyl)-3-(pyridin-2-yl)-1H-pyrazol-4-yl)-5-(1H-pyrazol-4-yl)furan-2-carboxamide], the EC50 in the assay on IL-23p19 is 80.6 nM; in the assay with IL-23 (p19/p40), 386 nM.

In the case of `O=C(Nc1cn(CC(F)(F)F)nc1-c1ccccn1)c1ccc(-c2cn[nH]c2)o1` [Compound I-117, 5-(1H-pyrazol-4-yl)-N-(3-(pyridin-2-yl)-1-(2,2,2-trifluoroethyl)-1H-pyrazol-4-yl)furan-2-carboxamide], the EC50 in the assay with IL-23p19 (Homo sapiens, THP-1, 18 h) amounted to 284 nM; in the assay with IL-23 (p19/p40) (Homo sapiens, 18 h) it was 25.7 nM.

For the molecule `CCO[C@H]1C[C@@H](n2cc(NC(=O)c3csc(-c4cn[nH]c4)n3)c(-c3ccc(F)cn3)n2)C1` [II-153, N-(1-((cis)-3-ethoxycyclobutyl)-3-(5-fluoropyridin-2-yl)-1H-pyrazol-4-yl)-2-(1H-pyrazol-4-yl)thiazole-4-carboxamide], the EC50 was found to be 748 nM in the assay on IL-23p19 (Homo sapiens, THP-1, 18 h) and 141 nM with IL-23 (p19/p40) (Homo sapiens, 18 h).

Regarding `Cc1n[nH]cc1-c1nc(C(=O)Nc2cn(CC(F)(F)F)nc2-c2ccccn2)cs1` [II-100, 2-(3-methyl-1H-pyrazol-4-yl)-N-(3-(pyridin-2-yl)-1-(2,2,2-trifluoroethyl)-1H-pyrazol-4-yl)thiazole-4-carboxamide], the EC50 in the assay on IL-23p19 (Homo sapiens, THP-1, 18 h) came to 56.1 nM; with IL-23 (p19/p40) (Homo sapiens, 18 h), 226 nM.

`O=C(Nc1cn(C2CCOCC2)nc1-c1ccccn1)c1coc(-c2cn[nH]c2)n1` [III-2, 2-(1H-pyrazol-4-yl)-N-(3-(pyridin-2-yl)-1-(tetrahydro-2H-pyran-4-yl)-1H-pyrazol-4-yl)oxazole-4-carboxamide]: the EC50 with IL-23p19 (Homo sapiens, THP-1, 18 h) worked out at 39.9 nM; with IL-23 (p19/p40) (Homo sapiens, 18 h), 135 nM.

Consider `O=C(Nc1cn(CCOCC(F)(F)F)nc1-c1ccccn1)c1csc(-c2cc[nH]n2)n1` [II-66, 2-(1H-pyrazol-3-yl)-N-(3-(pyridin-2-yl)-1-(2-(2,2,2-trifluoroethoxy)ethyl)-1H-pyrazol-4-yl)thiazole-4-carboxamide], for which the EC50 worked out at 106 nM in the assay on IL-23p19 (Homo sapiens, THP-1, 18 h) and 244 nM in the assay on IL-23 (p19/p40) (Homo sapiens, 18 h).

`O=C(Nc1cn([C@H]2C[C@H](OCC(F)(F)F)C2)nc1-c1ccccn1)c1csc(-c2cn[nH]c2)n1` [II-141, 2-(1H-pyrazol-4-yl)-N-(3-(pyridin-2-yl)-1-((trans)-3-(2,2,2-trifluoroethoxy)cyclobutyl)-1H-pyrazol-4-yl)thiazole-4-carboxamide]: the EC50 stood at 251 nM in the assay on IL-23p19 (Homo sapiens, THP-1, 18 h) and 51.7 nM with IL-23 (p19/p40) (Homo sapiens, 18 h).
